Assays:
[1] = tested on: Spontaneously Hypertensive Rats, middle cerebral artery occlusion (MCAo/stroke); assay: Collateral and control hemisphere perfusion by laser speckle contrast imaging after MCAo (Examples 4 and 5); format: in vivo, rat; details: from 25 minutes after MCAo for 45 minutes
[2] = Mean arterial pressure through femoral artery catheter during infusion after MCAo (Examples 4 and 5); format: in vivo, rat; details: from 25 minutes after MCAo for 45 minutes
Protocol: Animals were randomized to receive intravenous infusion of saline (control, 0.3 ml/hr n=6) or infusion of free nitroglycerin (free-GTN, 0.25 μg/μl in saline, at 300 μl/h=4 μg/kg/min, n=6), commencing 25 minutes after MCAo.
Animals received intravenous infusion of free nitroglycerin (free-GTN, 2.5 μg/μl in saline, at 300 μl/h=40 μg/kg/min, n=4), commencing 25 minutes after MCAo. […] Vehicle control (saline) was the same control group used for 4 μg/kg/min studies (n=6).

[3] = tested on: Spontaneously Hypertensive Rats, middle cerebral artery occlusion (MCAo/stroke); details: FIG. 3
Protocol: Animal experiments were performed on male Spontaneously Hypertensive Rats (SHRs) weighing 300-350 g (Harlan, Bicester, UK). All animals were housed in a 12 h light/dark cycle and had ad libitum access to food and water prior to experiments.
Rats were anesthetized with 5% isoflurane in O2/N2 (1:3) and maintained with 1% to 2% isoflurane. Core temperature was maintained at 37° C. by a thermocouple rectal probe and warming plate (Harvard Apparatus, UK). Incision sites were shaved, cleaned, and injected subcutaneously with 2 mg/kg 0.05% Bupivacaine (Aspen, UK). A femoral arterial line was used for continuous arterial pressure monitoring.
The filament was advanced into the right external carotid artery stump and up the internal carotid artery to occlude the origin of the right MCA.
Laser Doppler flowmetry (LDF) (Oxford Optronix, Oxford, UK) was used to measure changes in cerebral blood flow (CBF) in both the MCA and collateral arterial territories using dual probes. The animal's head was secured with ear bars in a stereotaxic frame. […]
Prior to MCAo, the femoral vein was cannulated with 2-French silicon tubing. […] Collateral perfusion was measured as a change from pre-injection baseline.
Prior to MCAo, the femoral vein was cannulated with 2-French silicon tubing. […] Collateral perfusion was measured as a % change from pre-injection baseline.

[4] = tested on: patients suffering ultra-acute stroke; details: transdermal (i.e. systemic) delivery; cited from earlier work
[5] = i.v. infusion 4 μg/kg/min nitroglycerin

Which results are given for `O=[N+]([O-])OCC(CO[N+](=O)[O-])O[N+](=O)[O-]` [nitroglycerin]?
perfusion in the corresponding region of the control/contralateral hemisphere [1, 5]: no significant effect; collateral blood perfusion (% change from pre-injection baseline) ([1]; i.v. infusion 4 μg/kg/min nitroglycerin, stroke hemisphere): did not change; collateral blood perfusion (% change from pre-injection baseline) ([1]; i.v. infusion 40 μg/kg/min, FIG. 14): did not change; perfusion in the corresponding region of the control/contralateral hemisphere ([1]; i.v. infusion 40 μg/kg/min, FIG. 15): no significant effect; blood pressure (mean arterial pressure) [2, 5]: dropped; blood pressure (mean arterial pressure) ([2]; i.v. infusion 40 μg/kg/min, FIG. 16): significantly dropped; peak collateral perfusion ([3]; free nitroglycerin not delivered using a SA-NT, Example 3b): only a modest increase; collateral perfusion with increasing doses ([3]; one SHR, i.v. bolus over 1 minute of 12.5, 25, 50 and 100 m, from 30 minutes after MCAo): no additional increase; functional outcome [4]: did not improve

— patent US20230355540A1, “STROKE TREATMENT” (Oxford University Innovation Limited, priority 2020, published 2023)
